Measured values from US20080241194A1, “COMPOSITIONS AND METHODS FOR PROTECTING ORGANS, TISSUE AND CELLS FROM IMMUNE SYSTEM-MEDIATED DAMAGE” (THE BOARD OF TRUSTEES OF THE LELAND STANFORD JUNIOR …, priority 1998, published 2008).

Assays:
huHsp47 RNA = assay: Northern analysis of huHsp47 RNA expression in BFA treated EC; format: cell-based, human; details: EC under BFA treatment, 0, 2 and 6 hour time points
Protocol: Northern analysis of huHsp47 RNA expression was carried out via a^32P-ATP nick translation labeling of the agarose gel purified full-length huHSP47 cDNA as probe and human beta action (a kind gift of Dr. S.N. Cohen) cDNA as internal control probe. Total RNA was harvested at 0 hour, 2 hour and 6 hour time points from EC undergoing BFA treatment. RNA for each time point was purified, denatured, subjected to formamide flatbed agarose gel electrophoresis, transferred to nitrocellulose, prehybridized, hybridized with the ^32P-labelled probes, washed under stringent conditions and autoradiographed without intensifier screens at −80° C. using techniques well known to those skilled in the art (see Sambrook et al. Molecular Cloning, A Laboratory Manual, second edition, Cold Spring Harbor Laboratory Press, 1989).

OCI-Ly8 tumor cell = assay: ^51Cr release CIK cytotoxicity assay, tumor targets; format: cell-based, human; details: OCI-Ly8 incubated with BFA 0-10 μM for 6 hours, E:T 20:1
Protocol: (§1) Target cells were metabolically labelled with ^51Cr (Dupont—New England Nuclear, Boston, Mass.) by incubating 1×10^6 cells in […] ^51Cr at 37° C. for 1-1.5 hours. The labelled cells were washed three times with phosphate buffered saline (PBS) containing 0.1% bovine serum albumin. The labelled cells were distributed in flat-bottomed 96 well microtiter plates at a concentration of 2×10^4 cells/well in triplicate. Effector (CIK) cells were added at the indicated ratios. Mabs were added prior to the addition of effector cells, and incubated for 15-30 minutes at room temperature. The final volume of the assay mixture in each well was 0.2 ml. After 4 hours at 37° C., the cells were collected by centrifugation and an aliquot of the supernatant was counted in a gamma counter (Micromedic Systems, Horsham, Pa.). The percentage of specific ^51Cr release was calculated according to the following equation: […]
Spontaneous release was obtained by incubating the labelled cells in complete medium alone and maximal release by treatment of the cells with 1% NP-40. […]

46.5 KDa protein (Hsp47) = assay: Immunoprecipitation and autoradiography of ^35S labeled 46.5 KDa protein from EC; format: cell-based, human
Protocol: For metabolic ^35S methionine/cysteine labelling cells were cultured for 22 hours in cysteine and methionine free RPMI 1640 or Hams-F12K (Irvine Scientific, Santa Ana, Calif.) media with dialyzed FCS, otherwise as described above, prior to the addition of 100 μCi ml-1 of Translabel (PIERCE/Amersham, Amersham, UK) ^35S methionine/cysteine at the start of BFA, control treatment and incubated for the indicated times. Pulse-chase labelled proteins were analyzed by SDS-PAGE, western analysis or autoradiography and silver staining.
Immunoprecipitation was carried out by first preparing preformed immune complexes as follows: Purified specific mouse monoclonal or rabbit polyclonal antibody were incubated in stoichiometric ratio with purified secondary goat anti-mouse or anti-rabbit antibody at a concentration of 10 μg ml-1 of 150 mM NaCl, 10 mM Tris-HCl, 1% (w/v) NP40, pH 7.8 with gentle agitation for 3 hours at 4° C. In a separate reaction their respective isotype matched control antibodies were coupled to protein A sepharose beads (Pharmacia, Uppsala, Sweden). […] The specific immune precipitate was recovered by centrifugation at 13,000 rpm for 30 minutes at 4° C., washed twice with 10 mM Tris-HCl at pH 6.8 and analyzed by SDS-PAGE and subsequent silver stain, transfer to solid support and streptavidin-AP detection and autoradiography. […]

HUVEC = assay: ^51Cr release CIK cytotoxicity assay, endothelial cell targets pre-treated with BFA, protein or peptide; format: cell-based, human; parameters: block of CIK mediated lysis of HUVECs: dose or concentration left out as unconfirmed; details: for protection of EC from CIK lysis by pre-incubation with purified native protein: gelatin purified protein, 30 minutes, washed before CIK addition
Protocol: as §1
Spontaneous release was obtained by incubating the labelled cells in complete medium alone and maximal release by treatment of the cells with 1% NP-40.
For brefeldin A (BFA) treatment, freshly confluent HUVEC monolayers, nonadherent target cells or CIK cells at 0.5-2×10^6 cells per ml were incubated with medium supplemented with 0.5-10 μg of brefeldin A (B6hringer Mannheim GmbH, Mannheim, Germany) per ml medium and incubated for 2-6 hours in a humidified incubator with 5% carbon dioxide at 37° C. BFA was dissolved at 100 μg per ml in 70% ethanol and used fresh or stored up to 4 weeks at −20° C. Prior to cytotoxicity assay the cells were rinsed three times with PBS, and fresh medium not containing BFA was added for the remainder of the assay (FIG. 4).
Both HUVEC and OCI-Ly8 cells were incubated with BFA at concentrations of 0, 2.5, 5, 7.5 and 10 μM for 6 hours as described above, washed, labeled with ^51Cr and used in a cytotoxicity assay with d21 CIK cells at an E:T ratio of 20:1. Preincubation of EC targets with 2.5 μM BFA reduced CIK mediated cytotoxicity by 40%.
Subsequent to ^51Cr labeling but prior to addition of effector cells 10-200 μg FPLC purified Hsp47 (Example 7) protein or 10 nM to 10 μM HPLC purified peptide […] (SEQ ID NO:3) (Example 8), both in sterile PBS at pH 7.4 and diluted to the final concentration with RPMI, were added to targets per ml of medium and incubated for 30 minutes at 37° C. in a humidified atmosphere of 5% CO2. In assays using purified protein, targets were subjected to three subsequent washes with 10 volumes of Ca^2+, Mg^2+ and 5% FCS containing PBS prior to providing fresh standard culture medium to the target cells. In assays using purified peptide, the added peptide was present for the entire assay. The remainder of the assay was performed as detailed above, at 37° C. in a humidified atmosphere of 5% CO2.

[1] = target: receptors for huHsp47 on CIK cells; assay: FACS of mature d21 CIK cells stained with 10 ug/ml eGFP-huHsp47, PE-CD56 co-staining

CC1CCCC=CC2CC(O)CC2C(O)C=CC(=O)O1 (stereo not shown) [BFA, 1,6,7,8,9,11a,12,13,14,14a-decahydro-1,13-dihydroxy-6-methyl-4H-cyclopent[f]oxacyclotridecin-4-one, reference compound]
expression of housekeeping gene beta action (huHsp47 RNA): does not affect | huHsp47 gene expression (huHsp47 RNA): does upregulate | effect on ability of CIK cells to lyse tumor targets (OCI-Ly8 tumor cell): did not affect | ^35S labeled 46.5 KDa protein in IP from EC (46.5 KDa protein (Hsp47); non-protective dose of 30 μM BFA): not detectable | ^35S labeled 46.5 KDa protein in IP from EC (46.5 KDa protein (Hsp47); protective dose of 10 μm BFA): contained a ^35S labeled 46.5 KDa protein | suppression of CIK mediated lysis of EC (HUVEC; BFA 0, 2.5, 5, 7.5 and 10 μM for 6 hours, E:T 20:1): suppress the CIK mediated lysis of EC in a dose dependent manner | persistence of resistant EC state after removal of the agent (HUVEC; after BFA removal): at least six hours | block of CIK mediated lysis of HUVECs (HUVEC; preincubation in BFA (so in the source), 6 hours, E:T 20:1): completely block | reduction of CIK mediated cytotoxicity against EC targets (HUVEC; preincubation with 2.5 μM BFA for 6 hours, d21 CIK, E:T 20:1): 40%

huHsp47δRDEL-enhanced green fluorescent protein (eGFP) fusion protein (from UniProt P50454 19-414)
percent of cells positive for both eGFP-huHsp47 and PE-CD56 probes [1]: 26%

B1: huHsp47: native human Hsp47, 46.5 KDa protein gelatin-affinity purified from BFA induced HUVEC (protein)
chain: AEVKKPVEAAAPGTAEKLSSKATTLAEPSTGLAFSLYQAMAKDQAVENILVSPVVVASSLGLVSLGGKATTASQAKAVLSAEQLRDEEVHAGLGELLRSLSNSTARNVTWKLGSRLYGPSSVSFADDFVASSKQHYNCEHSKINFPDKRSALQSINEWAAQTTDGKLPEVTKDVESTDGALLVNAMFFKPHWDEKFHHKMVDNRGFMVTRSYTVGVTMMHRTGLYNYYDDEKEKLQLVEMPLAHKLSSLIILMPHHVEPLERLEKLLTKEQLKIWMGKMQKKAVAISLPKGVVEVTHDLQKHLAGLGLTEAIDKNKADLSRMSGKKDLYLASVFHATAFELDTDGNPFDQDIYGREELRSPKLFYADHPFIFLVRDTQSGSLLFIGRLVRLKGDKMRDEL
protection of EC from CIK mediated lysis (HUVEC; 20 μm of gelatin-affinity purified huHsp47 per 300 μl): completely protect | protection of EC from CIK lysis by pre-incubation with purified native protein (HUVEC): protects EC | protection of EC from CIK lysis by pre-incubation with purified native protein (HUVEC; listed as p46.5): protect previously CIK sensitive EC in a dose responsive fashion
